Experimental data as given in publication PMC8287630 (Journal for Immunotherapy of Cancer, 2021).

Tests used:
[1] = Pharmacokinetic study in rats; type: in vivo; conditions: male, SD, rat, plasma, po, 30 mg/kg
Method: (§1) Pharmacokinetic studies of free CHA and CHA-SME were performed using SD rats and beagle dogs. […] At 5, 15, 30 min, 1, 2, 4, 6, and 8 hours, approximately 0.2 mL of blood was collected from the orbital into an anticoagulant tube and centrifuged at 4500 rpm for 10 min to separate the plasma. All plasma samples were stored frozen at –80°C until LC-MS/MS analysis (TSQ Quantum Access MAX; Thermo Fisher Scientific, Waltham, MA, USA).

[2] = Pharmacokinetic study in beagle dogs; type: in vivo; conditions: dog, plasma, 30 mg/kg
Method: as §1

G422 glioma = test: In vivo antitumor efficacy, subcutaneous G422 glioma model; parameters: species or system ICR mice; conditions: 14 days; CHA 20 mg/kg i.p., CHA-SME 35 mg/kg p.o.
Method: A subcutaneous glioma tumor model was established in female ICR mice, as mentioned above. […] The positive control group was orally administered TMZ (50 mg/kg) for 5 days. The blank CHA-SME group was orally administered with blank CHA-SME for 14 days. At the end of the experiment, all mice were euthanized, and the tumors were collected, weighed, and photographed. […] The positive control group was orally administered TMZ (50 mg/kg) for 5 days. […] The CHA-SME group was orally administered CHA-SME (35 mg/kg) for 14 days. At the end of the experiment, all mice were euthanized, and the tumors were collected, weighed, and photographed.

DCs and T cells = test: Immunomodulatory effects in vivo (immunophenotype of DCs and T cells, cytokines); parameters: species or system mice; conditions: CHA-SME 35 mg/kg; versus control treatment
Method: The in vivo immunomodulatory effects of CHA-SME were evaluated by analyzing the immunophenotype of LYM and cytokine production. LYM (DCs and T cells) infiltrated into the blood, tumor, and other important immune organs (MLNs and spleen) were quantitatively analyzed by flow cytometry. Fresh tumors were cut into small pieces and digested at 37°C for 40 min. Fresh MLNs and spleens were cut into small pieces and ground into single-cell suspensions. The cells were collected, washed, and incubated with different fluorescein-conjugated antibodies. The cell suspensions were filtered through 400-mesh sieves after two washes and analyzed by flow cytometry ([…] Biosciences, San Diego, California, USA). For immunophenotype analysis of T cells, CD45 +CD3+CD44+CD62L+cells and CD45 +CD3+CD44+CD62 L-cells were considered to be central memory T cells (TCM) and effector memory T cells (TEM), respectively. For DC maturation analysis, the expression levels of MHC I, CD40, CD80, and CD86 on DCs were examined. Different cytokines (IFN-γ, tumor necrosis factor α (TNF-α), and IL-10) in tumors, MLNs, spleens, and blood were quantitatively determined using bead-based LEGENDplex kits following the manufacturer's protocol.

[3] = In vivo safety evaluation (body weight, hematology, serum biochemistry, histopathology); parameters: species or system mice; conditions: for histopathology of heart, liver, spleen, lung and kidney: HE staining, versus control group; for animal behavior and body weight after administration: tumor-bearing mice
Method: The in vivo safety of CHA-SME was evaluated based on body weight, hematological examination, and histopathological examination in mice. Body weight was monitored throughout the experiment. At the end of the in vivo antitumor experiment, peripheral blood was collected for hematological examination using an automatic hematology analyzer (MEK-7222 K; Nihon Kohden, Tokyo, Japan). Additionally, the serum was separated to detect […] (ALT), […] (AST), blood urea nitrogen (BUN), and creatinine (CRE) to evaluate hepatic and renal functions using an automatic biochemical analyzer (Accute TBA-40FR; TOSHIBA, Kawasaki, Japan). Heart, liver, spleen, lung, kidney, stomach, small intestine, and MLNs were collected, fixed in 4% PFA, and subjected to histopathological examination using HE staining.

[4] = test system: several human cancer cell lines; conditions: cited from earlier work
[5] = type: in vivo; conditions: mice, oral 1 mg/kg, 30 min; figure 5C
Method: To evaluate the uptake of CHA-SME in the intestinal tissues and MLNs, Cou-6-labeled CHA-SME were orally administered to mice at 1 mg/kg. Thirty minutes later, the mice were sacrificed and intestinal segments (including duodenum, jejunum, ileum, and colon,~1 cm each) and MLNs were surgically collected, placed in embedding compound, frozen in liquid nitrogen, and dissected. The slices were fixed with 4% PFA, stained with TRITC phalloidin and DAPI, and imaged using CLSM. Additionally, MLNs were ground into single-cell suspensions and the fluorescence intensity was determined by flow cytometry.
To investigate the lymphatic transport of CHA-SME in vivo, mice were i.p. administered 3.0 mg/kg cycloheximide to block chylomicron flow.[37 38] One-hour postinjection, DiR-labeled or Cou-6-labeled CHA-SME was orally administered at 1.0 mg/kg. The mice were examined as described above.

Caco-2 cell monolayers = test: Transport within Caco-2 cell monolayers (CLSM); type: cell-based, human; conditions: 4 hours incubation
Method: To establish an in vitro Caco-2 cell monolayer model, Caco-2 cells were plated in a 12-well Transwell plate with a 0.4 µm pore polycarbonate membrane insert (Corning, Corning, New York, USA). A total of 0.5 mL of cell culture medium containing 2×10^5 cells was added in the upper compartment of each Transwell insert, and 1.5 mL of cell culture medium was added in the lower compartment. The culture medium in both compartments was changed every other day in the initial 14 days and every day in the following 7 days. After 21 days of culture, transepithelial electrical resistance (TEER) was measured using Millicell-ERS (Millipore, Billerica, Massachusetts, USA) to monitor cell monolayer integrity. A TEER value exceeding 800 Ω was selected for subsequent transepithelial transport study of CHA-SME.
For the transepithelial transport study of CHA-SME, Caco-2 cell monolayers cultured in Transwell plates were incubated with Cou-6-labeled CHA-SME for 4 hours at 37°C. Then, the cells were washed thrice with cold PBS, and the polycarbonate membrane with cultured cells was carefully cut from the insert. After fixation with 4% PFA and staining with TRITC phalloidin and DAPI, the excised membrane was placed in a glass slide and examined by CLSM.

Row | AUC [1] | bioavailability ([2]; oral, read-out: oral absolute bioavailability) | AUC ([2]; po, read-out: AUC Mean±SD) | Compound | tumor growth (G422 glioma) | proportion of infiltrating CD3+, CD4+ and CD8+ T cells in brain glioma tissues (DCs and T cells) | histopathology of heart, liver, spleen, lung and kidney [3] | animal behavior and body weight after administration [3] | effective dose for inhibition of cell proliferation / induction of apoptosis [4] | percentage of Cou-6-positive lymphocytes in MLNs [5] | green fluorescence within Caco-2 cell monolayers (Caco-2 cell monolayers)
1 | 35.8 ± 10.9 ng·h/mL | 5.85% | 692 ± 179 ng·h/mL | O=C(/C=C/c1ccc(O)c(O)c1)O[C@@H]1C[C@](O)(C(=O)O)C[C@@H](O)[C@H]1O [CHA, Chlorogenic acid] | able to inhibit tumor growth | no significant difference | no obvious organ lesion | tolerated the regimens well | higher than 100 µM | – | –
2 | – | – | – | CCN(CC)c1ccc2cc(-c3nc4ccccc4s3)c(=O)oc2c1 [Cou-6, Coumarin-6] | – | – | – | – | – | 7.2% | negligible green fluorescence
3 | – | – | – | Cn1nnc2c(C(N)=O)ncn2c1=O [TMZ, temozolomide] | – | – | a certain degree of fragmentation and pathological changes in the heart and spleen | marked weight loss and sparse hair | – | – | –
